Calls of active or inactive are those of the source. For most assays here, no stated cut-off is given here; in the data, actives have a measured EC50 and inactives only a lower limit.
Tests used:
[1] = Luminescence Cell-Based Dose Confirmation HTS to Identify Inhibitors of Platelet Dense Granule Release. [Related pubchem assays: 1663 (Primary HTS), 1678 (Summary of Project)]; type: functional
INS1 = assay: INS-1E survival protection against cytokine death – cell-based, luminescence, retest, dose response (AID 449756); type: functional; settings: Rattus norvegicus;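 further: cell death triggered by IL-1 beta plus TNF-alpha plus IFN-gamma mixture; protective hits raise ATP signal compared with cytokine alone wells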
[2] = target: Luciferin 4-monooxygenase (Photinus pyralis, UniProt P08659); assay: inhibition of purified Photinus pyralis luciferase – biochemical, luminescence, dose response (AID 1891)
Sequence of Luciferin 4-monooxygenase (P08659 whole entry): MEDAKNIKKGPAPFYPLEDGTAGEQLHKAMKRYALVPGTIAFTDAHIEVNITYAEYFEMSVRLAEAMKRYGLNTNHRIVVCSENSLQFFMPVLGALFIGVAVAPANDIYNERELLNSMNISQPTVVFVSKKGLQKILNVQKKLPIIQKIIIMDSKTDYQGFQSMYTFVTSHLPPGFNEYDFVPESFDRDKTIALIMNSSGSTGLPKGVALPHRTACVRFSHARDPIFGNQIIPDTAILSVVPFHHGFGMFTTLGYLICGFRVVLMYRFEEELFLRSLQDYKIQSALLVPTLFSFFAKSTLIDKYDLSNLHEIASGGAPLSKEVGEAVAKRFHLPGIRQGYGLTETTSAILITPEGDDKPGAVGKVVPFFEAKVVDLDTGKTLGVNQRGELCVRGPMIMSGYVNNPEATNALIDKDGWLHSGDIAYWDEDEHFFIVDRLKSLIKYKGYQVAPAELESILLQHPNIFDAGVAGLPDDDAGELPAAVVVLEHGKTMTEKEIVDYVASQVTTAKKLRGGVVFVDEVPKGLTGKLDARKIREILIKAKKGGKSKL

[3] = alpha-synuclein stem-loop luciferase translation blockers – H4 neuroglioma cells, luminescence, confirmation (AID 1988); type: functional, cell-based
[4] = luciferase reporter signal suppression in cells – H4 neuroglioma cells, luminescence, dose response (AID 1990); type: functional, cell-based
H9c2 = assay: cells; type: functional, cell-based; settings: Rattus norvegicus, H9c2, Myocardium;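 further: confirmatory concentration-response retest of ultra-high-throughput screening hits for modulation of myocardial damage; cell death induced by hydrogen peroxide oxidative stress; compound pretreatment for 60 min then peroxide exposure for 2 h; potency is for protecting the cells against peroxide damage rather than for killing them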
[5] = Luminescence Cell-Based Dose Response HTS to Identify Inhibitors of 5'UTR Stem-Loop Driven Prion Protein mRNA Translation in H4 Neuroglioblastoma Cells. [Related pubchem assays: 1827 (Project Summary), 1813 (Primary HTS)]; type: functional
[6] = NIH-3T3 fibroblast cytotoxicity, dose response, cytotoxicity control, cell-based, fluorescence, Alamar Blue, secondary assay (AID 2327); type: functional;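 further: NIH-3T3 mouse fibroblasts cultured with fluconazole at 8 µg/mL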
[7] = fluconazole-exposed Candida albicans growth modulators – fluorescence, retest, confirmation (AID 2467); type: functional, cell-based
BJ [8] = assay: cells; type: functional, cell-based; settings: Homo sapiens
BJ [9] = assay: BJ-TERT-LT-ST fibroblast viability loss – cell-based, RAS-independent, luminescence, dose response (AID 1935); type: functional; settings: Homo sapiens;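 further: BJ fibroblasts immortalized with TERT plus LT and ST oncogenes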
BJ [10] = assay: BJ-TERT fibroblast viability loss – cell-based, RAS-independent, luminescence, dose response (AID 1933); type: functional; settings: Homo sapiens
[11] = DRD fibroblast viability loss – cell-based, non-viral oncogenic, luminescence, dose response (AID 1934); type: functional; settings: Homo sapiens
[12] = target: T1, Heat shock factor protein 1 (Mus musculus, UniProt P38532); assay: decrease of HSF1-responsive luciferase luminescence – cell-based, NIH3T3, dose retest, confirmation (AID 2382); type: functional;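 further: NIH3T3 fibroblasts with HSF1-driven luciferase reporter stressed by proteasome inhibitor MG132; luminescence from HSF1-driven luciferase expression after 8 hours of MG132 stress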
T1 sequence (P38532 whole entry): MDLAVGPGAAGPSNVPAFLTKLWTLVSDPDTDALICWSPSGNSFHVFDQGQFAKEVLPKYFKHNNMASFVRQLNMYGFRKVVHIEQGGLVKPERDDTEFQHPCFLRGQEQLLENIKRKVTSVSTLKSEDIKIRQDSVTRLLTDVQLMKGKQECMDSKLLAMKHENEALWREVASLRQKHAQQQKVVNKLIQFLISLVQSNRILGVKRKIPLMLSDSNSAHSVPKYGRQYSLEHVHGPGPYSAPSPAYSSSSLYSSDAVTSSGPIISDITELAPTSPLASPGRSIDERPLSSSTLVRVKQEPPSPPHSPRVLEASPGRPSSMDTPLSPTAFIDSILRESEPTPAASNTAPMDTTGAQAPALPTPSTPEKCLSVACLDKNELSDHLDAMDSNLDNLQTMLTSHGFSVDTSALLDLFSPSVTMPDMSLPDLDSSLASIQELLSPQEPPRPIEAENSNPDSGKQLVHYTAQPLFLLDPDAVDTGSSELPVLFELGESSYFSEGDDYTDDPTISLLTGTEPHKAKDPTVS

Cytochrome P450 3A4 = Cytochrome P450 3A4 (Homo sapiens, UniProt P08684);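 further: CYP3A4 tested as one member of a cytochrome P450 panel screen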
Sequence of Cytochrome P450 3A4 (P08684 whole entry): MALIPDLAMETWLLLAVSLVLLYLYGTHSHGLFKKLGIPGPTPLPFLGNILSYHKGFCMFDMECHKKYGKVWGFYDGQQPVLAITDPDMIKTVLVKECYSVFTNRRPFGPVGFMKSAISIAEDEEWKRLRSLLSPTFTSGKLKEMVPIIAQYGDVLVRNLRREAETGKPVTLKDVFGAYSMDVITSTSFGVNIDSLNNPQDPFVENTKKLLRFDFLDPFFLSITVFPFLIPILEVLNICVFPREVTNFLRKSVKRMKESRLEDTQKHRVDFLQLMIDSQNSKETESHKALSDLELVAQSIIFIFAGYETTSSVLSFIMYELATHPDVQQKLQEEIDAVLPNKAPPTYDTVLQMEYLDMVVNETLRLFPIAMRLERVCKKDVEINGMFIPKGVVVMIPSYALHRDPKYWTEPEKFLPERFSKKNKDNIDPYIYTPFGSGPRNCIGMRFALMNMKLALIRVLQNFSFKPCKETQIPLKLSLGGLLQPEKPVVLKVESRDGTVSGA

Cytochrome P450 2C9 = Cytochrome P450 2C9 (Homo sapiens, UniProt P11712)
Sequence of Cytochrome P450 2C9 (P11712 whole entry): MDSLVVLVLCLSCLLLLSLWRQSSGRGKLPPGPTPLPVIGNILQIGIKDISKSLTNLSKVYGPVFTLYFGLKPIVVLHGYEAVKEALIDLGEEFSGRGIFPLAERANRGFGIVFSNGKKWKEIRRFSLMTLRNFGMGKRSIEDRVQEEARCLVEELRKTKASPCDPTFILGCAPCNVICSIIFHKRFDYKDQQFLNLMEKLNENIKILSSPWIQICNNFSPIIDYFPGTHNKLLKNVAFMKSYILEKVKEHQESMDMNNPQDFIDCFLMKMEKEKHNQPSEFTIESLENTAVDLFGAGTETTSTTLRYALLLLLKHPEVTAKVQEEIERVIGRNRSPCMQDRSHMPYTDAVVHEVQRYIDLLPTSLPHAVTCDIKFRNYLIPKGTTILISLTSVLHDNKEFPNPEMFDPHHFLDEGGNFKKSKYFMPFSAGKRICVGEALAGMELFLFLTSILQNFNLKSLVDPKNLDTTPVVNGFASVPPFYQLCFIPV

[13] = target: T2, Replicative DNA helicase DnaB (Mycobacterium tuberculosis, UniProt P9WMR3); assay: DnaB intein splicing inhibitors, dose response, biochemical, cell-free fluorescence (AID 449749); type: functional
T2 sequence (P9WMR3 whole entry): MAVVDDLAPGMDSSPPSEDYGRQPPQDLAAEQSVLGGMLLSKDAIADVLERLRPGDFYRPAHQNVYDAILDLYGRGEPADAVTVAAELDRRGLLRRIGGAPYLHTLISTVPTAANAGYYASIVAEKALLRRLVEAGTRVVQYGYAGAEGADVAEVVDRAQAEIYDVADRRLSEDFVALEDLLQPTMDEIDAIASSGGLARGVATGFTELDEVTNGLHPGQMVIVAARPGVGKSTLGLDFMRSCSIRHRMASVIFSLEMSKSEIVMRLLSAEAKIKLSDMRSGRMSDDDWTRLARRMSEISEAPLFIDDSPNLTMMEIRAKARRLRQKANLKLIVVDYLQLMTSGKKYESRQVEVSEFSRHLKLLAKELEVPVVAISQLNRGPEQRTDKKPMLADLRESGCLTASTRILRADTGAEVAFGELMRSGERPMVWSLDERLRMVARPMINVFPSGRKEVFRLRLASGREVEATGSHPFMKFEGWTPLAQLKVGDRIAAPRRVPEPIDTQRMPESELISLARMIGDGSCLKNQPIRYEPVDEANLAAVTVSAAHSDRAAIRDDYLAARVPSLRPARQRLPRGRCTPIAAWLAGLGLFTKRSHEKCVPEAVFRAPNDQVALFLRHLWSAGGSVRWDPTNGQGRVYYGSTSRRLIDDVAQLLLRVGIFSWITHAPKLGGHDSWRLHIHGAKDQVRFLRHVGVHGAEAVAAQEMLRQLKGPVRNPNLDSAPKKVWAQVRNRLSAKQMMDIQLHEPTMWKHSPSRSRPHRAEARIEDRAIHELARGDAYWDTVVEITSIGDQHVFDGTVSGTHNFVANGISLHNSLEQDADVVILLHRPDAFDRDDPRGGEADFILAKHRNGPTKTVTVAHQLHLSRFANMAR

Protein RecA = target: T3, Protein RecA (Mycobacterium tuberculosis, UniProt P9WHJ3); assay: Fluorescence Cell-Free Homogeneous Dose Retest to Identify Inhibitors of RecA-Intein Splicing Activity. [Related pubchem assays (depositor defined):AID2097, AID2223, AID489010, AID492950]; type: functional
T3 sequence (P9WHJ3 whole entry): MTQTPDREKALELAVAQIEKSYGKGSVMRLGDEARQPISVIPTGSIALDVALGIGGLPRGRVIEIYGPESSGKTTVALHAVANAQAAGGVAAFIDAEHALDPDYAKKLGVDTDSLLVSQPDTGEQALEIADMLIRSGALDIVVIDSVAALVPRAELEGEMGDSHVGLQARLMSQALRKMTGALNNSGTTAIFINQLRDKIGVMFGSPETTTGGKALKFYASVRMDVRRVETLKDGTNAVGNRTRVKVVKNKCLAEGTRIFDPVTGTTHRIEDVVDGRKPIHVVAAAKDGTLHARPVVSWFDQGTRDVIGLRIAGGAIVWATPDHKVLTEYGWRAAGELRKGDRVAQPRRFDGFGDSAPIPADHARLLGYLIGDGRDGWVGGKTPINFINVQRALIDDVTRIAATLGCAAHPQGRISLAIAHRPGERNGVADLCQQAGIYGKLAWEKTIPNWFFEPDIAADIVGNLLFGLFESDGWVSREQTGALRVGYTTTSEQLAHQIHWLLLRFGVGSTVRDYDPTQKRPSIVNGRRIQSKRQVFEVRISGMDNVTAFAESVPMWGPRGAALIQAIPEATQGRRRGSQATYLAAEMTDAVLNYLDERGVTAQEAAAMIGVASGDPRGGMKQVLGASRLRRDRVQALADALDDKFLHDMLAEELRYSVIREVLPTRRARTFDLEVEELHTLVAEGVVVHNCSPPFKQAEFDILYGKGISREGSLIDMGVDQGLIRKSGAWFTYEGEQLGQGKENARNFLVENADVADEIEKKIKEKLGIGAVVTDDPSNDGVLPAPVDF

Row | Compound | EC50 [1] | EC50 [2] | EC50 [3] | EC50 [4] | EC50 [5] | other results
1 | Cc1ccc(-c2nc(N/N=C/c3cccnc3)c3ccccc3n2)cc1 | 1.02 µM (active) | 0.798 µM (active) |  |  |  | AC50 (INS1): 6.77 µM (active)
2 | COCC(C)n1c(C)cc(C(=O)CN2C(=O)NC(Cc3c[nH]c4ccccc34)C2=O)c1C (centres undefined) | > 112 µM (not active) | > 112 µM (not active) |  |  |  | 
3 | C=CCc1ccccc1OCC(=O)N/N=C/c1ccc(OC(C)=O)cc1OC(C)=O |  |  | 10.6 µM (active) | 12.3 µM (active) | 14.6 µM (active) | IC50 (H9c2): > 79 µM (inactive)
4 | O=C(Nc1ccc(OCc2ccccc2Cl)cc1)c1cccnc1 |  |  | 0.485 µM (active) | 3.07 µM (active) | 0.909 µM (active) | EC50 [6]: > 150 µM (inactive); EC50 [7]: > 38 µM (not active)
5 | CCCCOc1ccc(NC(=O)C(=O)NCCC2=CCCCC2)cc1 |  |  |  |  |  | EC50 (BJ [8]): > 150 µM (not active); EC50 (BJ [9]): > 150 µM (inconclusive); EC50 (BJ [10]): > 150 µM (not active); EC50 [11]: 142 µM (active)
6 | Cc1cc(/C(O)=C(/C([S-])=Nc2ccccc2)[n+]2ccccc2)c(C)n1-c1ccccc1 |  |  | > 120 µM (not active) | > 120 µM (not active) | > 120 µM (not active) | EC50 [12]: 2.53 µM (active)
7 | COc1ccc(OC)c(Nc2nc(-c3cccc([N+](=O)[O-])c3)nc3ccccc23)c1 |  |  | 69.3 µM (active) | > 120 µM (not active) | 21.7 µM (active) | AC50 (Cytochrome P450 3A4): 2.82 µM (inconclusive); AC50 (Cytochrome P450 2C9): 0.355 µM (inconclusive)
8 | O=C(Nc1cccc(NC(=O)c2cccnc2Cl)c1)c1ccco1 | 16.6 µM (active) | > 112 µM (not active) |  |  |  | 
9 | COc1ccc(C2=CC(c3ccc(OC)c(OC)c3)c3c(c4ccccc4oc3=O)O2)cc1OC (centres undefined) |  |  |  |  |  | EC50 (BJ [8]): 51.8 µM (active); EC50 (BJ [9]): 27.7 µM (active); EC50 [12]: > 195 µM (not active); EC50 (BJ [10]): 5.11 µM (active); EC50 [11]: 17.3 µM (active)
10 | O=C(Nc1ccc(S(=O)(=O)NC2CCCCC2)cc1)c1ccco1 |  |  | > 120 µM (not active) | 26.7 µM (active) | > 120 µM (not active) | 
11 | CC(C)NC(=O)COC(=O)c1ccc(S(=O)(=O)N2CCCC2)cc1 |  |  | > 120 µM (not active) | > 120 µM (not active) | > 120 µM (not active) | 
12 | Cc1ccc(C(=O)O/N=C(\N)c2ccccc2)c(Cl)c1 | 2.42 µM (active) | 1.03 µM (active) |  |  |  | EC50 [12]: < 0.16 µM (active)
13 | Cn1c(=O)c2c(nc(SCCN3CCOCC3)n2Cc2ccccc2Cl)n(C)c1=O | > 112 µM (not active) | > 112 µM (not active) |  |  |  | 
14 | CCn1cc(/C=N\NC(=O)c2ccc3c(c2)c(C)c(C)n3Cc2ccccc2)c(C)n1 |  |  |  |  |  | EC50 (BJ [8]): > 150 µM (not active); EC50 (BJ [9]): > 150 µM (not active); EC50 (BJ [10]): > 150 µM (not active); EC50 [11]: > 150 µM (not active)
15 | Cc1c(OCC(=O)Nc2cccnc2)ccc2c3c(c(=O)oc12)CCC3 |  |  | > 120 µM (not active) |  | > 120 µM (not active) | AC50 [13]: 2.65 µM (active); EC50 (Protein RecA): 2.26 µM (active)
16 | CCCn1nc(C(=O)NNC(=O)c2cccc(S(=O)(=O)NC(C)C)c2)c2ccccc2c1=O | > 112 µM (not active) | > 112 µM (not active) |  |  |  | 
17 | Cc1nc2cc(Nc3ccncc3)ccc2s1 | > 112 µM (not active) | > 112 µM (not active) |  |  |  | 
18 | COc1cc2c(cc1OC)C(C)N(C(=O)c1cc(C)on1)CC2 (centres undefined) |  |  | 0.415 µM (active) | 4.12 µM (active) | 3.88 µM (active) | 
19 | N#CC1=C(N)Oc2cc(N)ccc2C1c1cccc(F)c1 (centres undefined) |  |  |  |  |  | EC50 (BJ [8]): 34 µM (active); EC50 (BJ [9]): 14.2 µM (inconclusive); EC50 (BJ [10]): 10.8 µM (active); EC50 [11]: 16.5 µM (active)
20 | O=C(CSc1nc2ccccc2c(=O)n1Cc1ccco1)N1CCCC1 |  |  | > 120 µM (not active) | 20.3 µM (active) | > 120 µM (not active) | 
21 | O=C1C(=C2SCCCS2)CC/C1=C\c1ccc(F)cc1 |  |  | 0.116 µM (active) | 0.238 µM (active) | 4.36 µM (active) | 
22 | Cc1cc2ccccn2c1C(=O)c1cccc([N+](=O)[O-])c1 |  |  |  |  |  | EC50 (BJ [8]): > 150 µM (not active); EC50 (BJ [9]): > 150 µM (inconclusive); EC50 (BJ [10]): > 150 µM (not active); EC50 [11]: > 150 µM (inconclusive)
